# pIC50: −log10 of the molar value.
# Assays:
# mechanical allodynia = type: in vivo, Sprague-Dawley rats; settings: for ED50 on mechanical allodynia: i.p., time point 1 hour
# mechanical hyperalgesia = assay: carrageenan-induced mechanical hyperalgesia; type: in vivo, CD1 mice; settings: mice, oral, time point 4 hours
# 2-AG hydrolysis = 2-AG hydrolysis colorimetric assay in rat brain microsomes; type: biochemical; settings: read-out: 2-AG hydrolysis IC50, n=3
# heat hyperalgesia = assay: carrageenan-induced heat hyperalgesia; type: in vivo, CD1 mice; settings: mice, oral, time point 4 hours
# [1] = test system: carrageenan-induced edema; assay: carrageenan-induced paw edema; type: in vivo, CD1 mice; settings: mice, 10 mg kg^−1 oral, P<.001
Compound,ED50 on mechanical allodynia (mechanical allodynia; diabetic rats),ED50 on mechanical hyperalgesia (mechanical hyperalgesia),pIC50 (2-AG hydrolysis),ED50 on heat hyperalgesia (heat hyperalgesia),suppression of edema 24 hours after application [1],"effect on allodynia at 0.3 mg kg^−1 (mechanical allodynia; neuropathic rats, 0.3 mg kg^−1 dose)","effect on allodynia compared with TPPU and URB937 at the same dose (mechanical allodynia; diabetic rats, 3 mg kg^−1 i.p.)"
CCC(=O)N1CCC(NC(=O)Nc2ccc(OC(F)(F)F)cc2)CC1 [TPPU],0.1 mg/kg,1 mg/kg,< 4.00,0.5 mg/kg,still statistically detectable,,
NC(=O)c1cccc(-c2cc(OC(=O)NC3CCCCC3)ccc2O)c1 [URB937],0.3 mg/kg,,< 4.00,0.2 mg/kg,,attenuated allodynia,
"O=C(Nc1cccc(OC(F)(F)F)c1)N[C@H]1CC[C@H](Oc2ccc(C(=O)O)cc2)CC1 [t-TUCB, trans-4-[4-(3-trifluoromethoxyphenyl-l-ureido)-cyclohexyloxy]-benzoic acid]",,,,,,,similar

# — publication PMC4464910 (Pharmacological research : the official journal of the …, 2015)
